Measured values taken from ChEMBL document CHEMBL6121021, “Design and Synthesis of Topoisomerases-Histone Deacetylase Dual Targeted Quinoline-Bridged Hydroxamates as Anticancer Agents” (J Med Chem, 2025).
The source made the active and inactive calls. No cut-off for these calls is given here.

Key:
[1] = target: DNA topoisomerase 2-alpha (Homo sapiens, UniProt P11388); experiment: Inhibition of human Topo II-alpha-mediated decatenation of kDNA at 100 uM incubated for 30 mins
HT-29 = experiment: cells; type: functional, cell-based; details: Homo sapiens, HT-29, 48 h
MCF7 = experiment: cells; type: functional, cell-based; details: Homo sapiens, MCF7, 48 h
Histone deacetylase 8 = target: T1, Histone deacetylase 8 (Homo sapiens, UniProt Q9BY41); experiment: Inhibition of HDAC8 (unknown origin) by fluorometric assay
T1 sequence (Q9BY41 whole entry): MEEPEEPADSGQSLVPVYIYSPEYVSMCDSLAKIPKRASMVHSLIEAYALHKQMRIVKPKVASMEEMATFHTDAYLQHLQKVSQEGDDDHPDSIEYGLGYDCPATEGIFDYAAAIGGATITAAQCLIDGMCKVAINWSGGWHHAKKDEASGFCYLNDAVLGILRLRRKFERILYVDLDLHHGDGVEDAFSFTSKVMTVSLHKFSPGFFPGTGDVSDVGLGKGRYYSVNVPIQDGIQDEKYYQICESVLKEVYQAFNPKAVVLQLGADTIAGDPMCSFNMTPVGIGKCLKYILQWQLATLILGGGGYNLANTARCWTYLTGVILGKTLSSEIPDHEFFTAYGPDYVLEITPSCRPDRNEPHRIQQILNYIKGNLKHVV

Supercoiled DNA = experiment: Binding affinity to supercoiled DNA (unknown origin) assessed as DNA intercalation measured after 30 mins by gel electrophoresis; type: nucleic-acid assay
MDA-MB-231 [2] = experiment: cells; type: functional, cell-based; details: Homo sapiens, MDA-MB-231, 48 h
[3] = target: T2, Protein deacetylase HDAC6 (Homo sapiens, UniProt Q9UBN7); experiment: Inhibition of HDAC6 (unknown origin) using acetylated-peptide substrate by fluorometric assay
T2 sequence (Q9UBN7 whole entry): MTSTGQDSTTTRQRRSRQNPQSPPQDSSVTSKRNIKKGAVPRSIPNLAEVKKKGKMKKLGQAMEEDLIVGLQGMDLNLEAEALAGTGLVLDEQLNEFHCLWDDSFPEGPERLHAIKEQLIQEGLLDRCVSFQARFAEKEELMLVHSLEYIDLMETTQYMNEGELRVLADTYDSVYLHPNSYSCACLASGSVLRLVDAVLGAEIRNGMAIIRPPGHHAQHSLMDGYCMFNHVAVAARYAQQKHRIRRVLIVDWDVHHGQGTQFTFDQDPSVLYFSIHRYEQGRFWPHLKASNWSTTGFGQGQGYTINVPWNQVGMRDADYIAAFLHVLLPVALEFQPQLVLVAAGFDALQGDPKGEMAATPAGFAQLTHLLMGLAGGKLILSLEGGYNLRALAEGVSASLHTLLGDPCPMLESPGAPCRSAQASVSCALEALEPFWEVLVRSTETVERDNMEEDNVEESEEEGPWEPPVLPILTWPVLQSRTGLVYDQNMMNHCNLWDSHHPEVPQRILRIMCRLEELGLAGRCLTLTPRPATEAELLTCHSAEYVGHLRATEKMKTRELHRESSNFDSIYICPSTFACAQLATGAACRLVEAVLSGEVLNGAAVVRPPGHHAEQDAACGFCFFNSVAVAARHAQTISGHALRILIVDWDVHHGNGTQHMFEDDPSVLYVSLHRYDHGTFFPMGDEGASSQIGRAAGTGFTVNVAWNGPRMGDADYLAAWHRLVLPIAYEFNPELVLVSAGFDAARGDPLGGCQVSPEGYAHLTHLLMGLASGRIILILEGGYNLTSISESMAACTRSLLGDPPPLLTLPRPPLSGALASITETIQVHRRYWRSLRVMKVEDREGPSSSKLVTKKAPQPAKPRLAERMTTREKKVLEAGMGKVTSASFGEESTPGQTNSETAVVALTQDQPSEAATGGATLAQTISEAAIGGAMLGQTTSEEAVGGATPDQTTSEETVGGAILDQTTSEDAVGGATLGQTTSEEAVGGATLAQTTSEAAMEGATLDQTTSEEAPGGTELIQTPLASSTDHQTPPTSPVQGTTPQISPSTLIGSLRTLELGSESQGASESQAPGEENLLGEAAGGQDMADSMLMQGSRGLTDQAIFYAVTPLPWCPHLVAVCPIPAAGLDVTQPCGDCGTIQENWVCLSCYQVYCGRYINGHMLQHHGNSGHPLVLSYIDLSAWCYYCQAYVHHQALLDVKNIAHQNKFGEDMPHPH

Histone deacetylase 1 [4] = target: T3, Histone deacetylase 1 (Homo sapiens, UniProt Q13547); experiment: Inhibition of HDAC1 extracted from human A549 nucleus incubated for 1 hr by fluorometric assay; type: cell-free
T3 sequence (Q13547 whole entry): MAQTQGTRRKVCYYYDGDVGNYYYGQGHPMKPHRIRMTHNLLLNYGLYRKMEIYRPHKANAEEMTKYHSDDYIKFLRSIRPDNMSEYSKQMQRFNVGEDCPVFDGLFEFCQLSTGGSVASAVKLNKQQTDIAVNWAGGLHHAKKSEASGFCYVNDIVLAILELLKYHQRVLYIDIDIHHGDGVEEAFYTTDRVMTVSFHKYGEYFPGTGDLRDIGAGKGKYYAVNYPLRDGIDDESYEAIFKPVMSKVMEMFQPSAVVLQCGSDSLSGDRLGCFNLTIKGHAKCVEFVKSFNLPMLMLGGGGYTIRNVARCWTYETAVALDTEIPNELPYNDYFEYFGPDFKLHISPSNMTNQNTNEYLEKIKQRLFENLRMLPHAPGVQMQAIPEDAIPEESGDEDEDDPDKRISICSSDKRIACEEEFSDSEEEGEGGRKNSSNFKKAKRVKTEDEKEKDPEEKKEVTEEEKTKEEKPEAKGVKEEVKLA

NCI-H1299 = experiment: cells; type: functional, cell-based; details: Homo sapiens, NCI-H1299, 48 h
A549 [5] = experiment: cells; details: Homo sapiens, A549, 48 h
Histone deacetylase 1 [6] = target: T3, Histone deacetylase 1; experiment: Inhibition of HDAC1 (unknown origin) incubated for 48 hrs
MDA-MB-231 [7] = experiment: Anti-cancer activity against human MDA-MB-231 cells assessed as decrease in PCNA level at 5 uM incubated for 48 hrs by immunoblot analysis; type: functional, cell-based
[8] = Antiproliferative activity against human NCI-H1975 cells harboring EGFR T790M mutant incubated for 48 hrs by MTT assay; type: functional, cell-based; details: NCI-H1975, 48 h
[9] = Toxicity in athymic nude Crl:NU-Foxn1nu mouse xenografted with human A549 cells assessed as animal survival at 30 mg/kg, po administered twice a week for 1 month; type: organism-based; details: in vivo, 730 h, time 1 months
A549 [10] = experiment: Induction of ROS generation in human A549 cells incubated for 48 hrs by Cell Rox red staining based flow cytometry; type: functional
A549 [11] = experiment: Induction of cell cycle arrest in human A549 cells assessed as accumulation at G2/M phase by PI staining based flow cytometry; type: functional
A549 [12] = experiment: Induction of apoptosis in human A549 cells by Annexin-V/PI staining based flow cytometry; type: functional, cell-based
A549 [13] = experiment: Anti-cancer activity against human A549 3D cell culture model assessed as inhibition of 3D culture initiation at sub- IC50 incubated for 21 days with replacement of medium containing compound on every seventh day; type: functional, cell-based; details: time 21.0 day
A549 [14] = experiment: Anti-cancer activity against human A549 3D cell culture model at sub- IC50 incubated for 17 days with replacement of medium containing compound on every third day; type: functional, cell-based; details: time 17.0 day
A549 [15] = experiment: Effect on mitochondrial membrane permeability in human A549 cells assessed as decrease in red to green fluorescence ratio at sub-IC50 incubated for 48 hrs by JC-1 staining based analysis; type: functional, cell-based
A549 [16] = experiment: Induction of cell cycle arrest in human A549 cells assessed as accumulation at G1 phase by PI staining based flow cytometry; type: functional
A549 [17] = experiment: Induction of ROS generation in human A549 cells incubated for 48 hrs by DCFH-DA staining based analysis; type: functional, cell-based
[18] = target: T4, DNA topoisomerase 1 (Homo sapiens) (UniProt P11387); experiment: Inhibition of human Topo I-mediated relaxation of supercoiled DNA preincubated for 30 mins followed by proteinase K addition measured after 30 mins by gel electrophoresis; details: time 60.0 min
T4 sequence (whole entry): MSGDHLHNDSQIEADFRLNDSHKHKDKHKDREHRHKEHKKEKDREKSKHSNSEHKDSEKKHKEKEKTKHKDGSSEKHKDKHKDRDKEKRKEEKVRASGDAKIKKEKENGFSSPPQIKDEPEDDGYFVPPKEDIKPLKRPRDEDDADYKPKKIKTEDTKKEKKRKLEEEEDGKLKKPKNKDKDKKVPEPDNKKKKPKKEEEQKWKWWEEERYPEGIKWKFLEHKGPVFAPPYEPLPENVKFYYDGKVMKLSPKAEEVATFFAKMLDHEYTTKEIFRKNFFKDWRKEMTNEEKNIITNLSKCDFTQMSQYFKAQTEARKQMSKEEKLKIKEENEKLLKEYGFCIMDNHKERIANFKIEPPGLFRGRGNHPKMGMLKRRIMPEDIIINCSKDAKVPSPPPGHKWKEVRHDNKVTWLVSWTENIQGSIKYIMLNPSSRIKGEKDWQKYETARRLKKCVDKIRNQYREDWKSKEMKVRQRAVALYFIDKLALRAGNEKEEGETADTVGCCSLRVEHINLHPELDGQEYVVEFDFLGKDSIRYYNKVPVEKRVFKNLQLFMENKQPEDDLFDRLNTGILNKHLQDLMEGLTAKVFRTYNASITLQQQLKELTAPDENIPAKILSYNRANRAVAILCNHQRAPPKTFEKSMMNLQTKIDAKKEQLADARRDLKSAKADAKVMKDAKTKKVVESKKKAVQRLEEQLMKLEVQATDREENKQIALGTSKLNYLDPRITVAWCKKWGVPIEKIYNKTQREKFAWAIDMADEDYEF

[19] = target: T2, Protein deacetylase HDAC6; experiment: Inhibition of HDAC6 (unknown origin)
Histone deacetylase 1 [20] = target: T3, Histone deacetylase 1; experiment: Inhibition of HDAC1 (unknown origin)

DNA topoisomerase 2-alpha, sequence (P11388 whole entry): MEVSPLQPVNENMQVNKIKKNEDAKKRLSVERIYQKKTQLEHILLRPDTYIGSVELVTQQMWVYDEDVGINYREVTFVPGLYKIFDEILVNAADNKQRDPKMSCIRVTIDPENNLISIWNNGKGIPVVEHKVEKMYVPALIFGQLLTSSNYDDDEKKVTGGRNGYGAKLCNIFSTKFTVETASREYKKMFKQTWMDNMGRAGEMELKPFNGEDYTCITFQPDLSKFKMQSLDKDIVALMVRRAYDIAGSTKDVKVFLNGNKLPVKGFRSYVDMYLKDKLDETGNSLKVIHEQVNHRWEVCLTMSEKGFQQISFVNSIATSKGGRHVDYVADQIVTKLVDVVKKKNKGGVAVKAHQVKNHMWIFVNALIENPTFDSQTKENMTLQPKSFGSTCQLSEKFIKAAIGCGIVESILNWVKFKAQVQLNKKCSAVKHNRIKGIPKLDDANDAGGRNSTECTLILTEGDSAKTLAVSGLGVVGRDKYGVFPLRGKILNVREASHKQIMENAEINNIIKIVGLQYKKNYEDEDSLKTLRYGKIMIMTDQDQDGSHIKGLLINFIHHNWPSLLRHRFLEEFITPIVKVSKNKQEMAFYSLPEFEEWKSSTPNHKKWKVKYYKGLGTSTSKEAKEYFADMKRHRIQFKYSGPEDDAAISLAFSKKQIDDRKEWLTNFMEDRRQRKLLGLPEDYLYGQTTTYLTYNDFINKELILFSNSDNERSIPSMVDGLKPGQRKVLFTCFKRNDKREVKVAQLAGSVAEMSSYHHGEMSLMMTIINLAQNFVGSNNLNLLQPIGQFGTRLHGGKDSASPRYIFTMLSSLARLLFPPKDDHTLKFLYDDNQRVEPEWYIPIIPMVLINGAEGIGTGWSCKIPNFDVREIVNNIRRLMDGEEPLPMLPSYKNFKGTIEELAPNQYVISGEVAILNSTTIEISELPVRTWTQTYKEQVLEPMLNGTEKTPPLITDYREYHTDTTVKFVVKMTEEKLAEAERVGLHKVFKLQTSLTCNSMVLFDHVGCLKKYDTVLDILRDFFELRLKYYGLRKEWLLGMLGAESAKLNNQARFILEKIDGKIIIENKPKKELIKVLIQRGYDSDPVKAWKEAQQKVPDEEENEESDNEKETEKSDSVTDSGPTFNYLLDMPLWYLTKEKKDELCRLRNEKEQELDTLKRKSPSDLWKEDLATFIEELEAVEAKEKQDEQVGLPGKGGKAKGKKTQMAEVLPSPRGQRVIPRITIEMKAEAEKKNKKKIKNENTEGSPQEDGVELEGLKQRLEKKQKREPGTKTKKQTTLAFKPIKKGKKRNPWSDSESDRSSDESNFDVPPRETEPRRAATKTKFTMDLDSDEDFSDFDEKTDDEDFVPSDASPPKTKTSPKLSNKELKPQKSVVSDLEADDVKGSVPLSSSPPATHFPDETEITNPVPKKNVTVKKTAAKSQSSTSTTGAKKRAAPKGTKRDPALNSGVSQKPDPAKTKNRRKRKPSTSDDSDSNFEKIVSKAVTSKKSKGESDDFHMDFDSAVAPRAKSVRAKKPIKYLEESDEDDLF

SMILES | inhibition [1] | IC50 (HT-29) [µM] | IC50 (MCF7) [µM] | IC50 (Histone deacetylase 8) [nM] | Activity (Supercoiled DNA) | IC50 (MDA-MB-231 [2]) [µM] | IC50 [3] [nM] | IC50 (Histone deacetylase 1 [4]) [nM] | IC50 (NCI-H1299) [µM] | IC50 (A549 [5]) [nM] | also measured
COc1cc(-c2ccc3cc(OCCCCCC(=O)NO)ccc3n2)cc(OC)c1OC | Active | 1.9 | 5.22 | > 500 | inactive | 6.24 | > 500 | 44.1 | 3.23 | 1850 | 
O=C(CCCCCOc1ccc(-c2nc3ccccc3c3cc(-c4ccccc4)nn23)cc1)NO |  |  |  |  |  |  |  |  |  |  | IC50 (Histone deacetylase 1 [6]): 790 nM
CC[C@@]1(O)C(=O)OCc2c1cc1n(c2=O)Cc2cc3ccccc3nc2-1 [CAMPTOTHECIN] |  | 6.87 | 5.67 |  |  | 7.36 |  |  | 5.22 | 6860 | Activity (MDA-MB-231 [7]): inactive
O=C(CCCCCCC(=O)Nc1ccccc1)NO [VORINOSTAT] |  |  |  |  |  |  |  |  |  | 7760 | IC50 [8]: 1030 nM; Activity [9]: Non-toxic
COc1ccc(-c2ccc3ccc(OCCCCCC(=O)NO)cc3n2)cc1I | Active; Observed As More Active Than Etoposide | 2.86 | 2.87 | > 500 | inactive | 1.49 | 47.8 | 33.5 | 1.98 | 1770 | Activity (A549 [10]): Active; Activity (A549 [11]): Active; Activity (A549 [12]): Active; inhibition (A549 [13]): Active; Activity (A549 [14]): Active; Exhibited Potent Effect; Activity (A549 [15]): Not active; Result Signifies That Cell Death Induced Via Mitochondrial-Independent Pathways; Activity (A549 [16]): Active; Activity (A549 [17]): Active; inhibition [18]: Active
O=C(CCCCCCOc1ccc(-c2ccc3ccccc3n2)cc1)NO | Active; Observed As More Active Than Etoposide | 3.45 | 4.82 | > 500 | inactive | 3.81 | 276 | 66.5 | 2.46 | 853 | 
CN1c2ccc(NCc3ccc(-c4noc(CC(=O)NO)n4)cc3)cc2C(O)N2CCc3c([nH]c4ccc(O)cc34)C12 (stereo unspecified) |  |  |  |  |  |  |  |  |  |  | IC50 [19]: 13 nM; IC50 (Histone deacetylase 1 [20]): 24 nM
O=C(CCCCCn1cc(-c2ccc(Nc3c4ccccc4nc4ccccc34)cc2)nn1)NO |  |  |  |  |  |  |  |  |  |  | IC50 [19]: 2.9 nM; IC50 (Histone deacetylase 1 [20]): 3.9 nM
CC[C@@]1(O)C(=O)OCc2c1cc1n(c2=O)Cc2c-1nc1ccccc1c2/C=N\OCCCCCCC(=O)NO |  |  |  |  |  |  |  |  |  |  | IC50 [19]: 5.22 nM; IC50 (Histone deacetylase 1 [20]): 5.26 nM
O=C(CCCCCCOc1ccc2nc(-c3ccccc3)ccc2c1)NO | Active; Observed As More Active Than Etoposide | 8.34 | 9.38 | > 500 | inactive | 8.93 | > 500 | 47.4 | 4.25 | 3950 | 
COc1cc([C@@H]2c3cc4c(cc3[C@@H](O[C@@H]3O[C@@H]5CO[C@@H](C)O[C@H]5[C@H](O)[C@H]3O)[C@H]3COC(=O)[C@H]23)OCO4)cc(OC)c1O [ETOPOSIDE] |  |  |  |  |  |  |  |  |  |  | IC50 [8]: 1630 nM; Activity [9]: Non-toxic
COc1ccc(-c2ccc3cc(OCCCCCCC(=O)NO)ccc3n2)cc1 | Active; Observed As More Active Than Etoposide | 3.91 | 1.44 | > 500 | inactive | 0.978 | > 500 | 28 | 2.33 | 1600 | Activity (A549 [10]): Active; Activity (A549 [11]): Active; Activity (A549 [12]): Active; inhibition (A549 [13]): Active; Activity (A549 [14]): Active; Exhibited Commendable Decrease In Mass Of 3D Sphere; Activity (A549 [15]): Active; Result Signifies That Cell Death Induced Via Mitochondrial-Dependent Pathways; Activity (A549 [16]): Active; Activity (A549 [17]): Active; inhibition [18]: Active
COc1cc(-c2ccc3cc(OCCCCCCC(=O)NO)ccc3n2)cc(OC)c1OC | Active | 4.97 | 4.66 | > 500 | inactive | 5.87 | 243 | 69.8 | 4.81 | 3750 | 
